Experimental data as given in patent US20230192661A1, “1, 4, 5, 6-TETRAHYDROPYRIMIDINE-2-AMINE DERIVATIVE” (UBE Corporation, priority 2020, published 2023).

What was measured:
αvβ1 = molecular target: T1, αvβ1 (UniProt G3HZ55+P06756); experiment: αvβ1 cell adhesion inhibition test (αv-transfected CHO cells on human fibronectin); format: cell-based; settings: human fibronectin coating, 1 mM MnCl2, 1 hour, read-out: IC50 (rate of inhibition of cell adhesion, αvβ1)
T1 construct: expressed in transfected cells; host or cells: CHO cells deficient in α5 gene, transfected with αv gene
T1 sequence (P06756 31-889 limits assumed): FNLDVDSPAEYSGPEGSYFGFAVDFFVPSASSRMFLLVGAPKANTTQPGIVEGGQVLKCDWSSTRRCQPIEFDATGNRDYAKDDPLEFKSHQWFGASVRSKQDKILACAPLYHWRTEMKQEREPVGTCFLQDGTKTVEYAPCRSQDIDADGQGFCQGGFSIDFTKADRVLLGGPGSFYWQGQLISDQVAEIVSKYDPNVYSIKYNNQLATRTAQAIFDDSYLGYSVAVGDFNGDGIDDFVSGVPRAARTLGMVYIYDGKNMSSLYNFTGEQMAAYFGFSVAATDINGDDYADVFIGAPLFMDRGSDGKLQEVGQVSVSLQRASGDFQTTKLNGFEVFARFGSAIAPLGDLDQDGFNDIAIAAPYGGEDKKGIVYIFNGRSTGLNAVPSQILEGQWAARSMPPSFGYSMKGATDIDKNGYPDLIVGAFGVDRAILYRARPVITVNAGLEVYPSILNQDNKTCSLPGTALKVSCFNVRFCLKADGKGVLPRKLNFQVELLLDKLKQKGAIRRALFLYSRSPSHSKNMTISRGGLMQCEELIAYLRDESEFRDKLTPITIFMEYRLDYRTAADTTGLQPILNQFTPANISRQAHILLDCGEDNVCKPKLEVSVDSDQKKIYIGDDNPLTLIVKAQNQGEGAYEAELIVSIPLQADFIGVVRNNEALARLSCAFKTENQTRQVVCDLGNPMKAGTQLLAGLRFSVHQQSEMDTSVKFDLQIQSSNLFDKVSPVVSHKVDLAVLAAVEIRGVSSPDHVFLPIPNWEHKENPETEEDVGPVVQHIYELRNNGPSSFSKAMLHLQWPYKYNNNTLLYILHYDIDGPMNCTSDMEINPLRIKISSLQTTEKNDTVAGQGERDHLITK
T1 sequence (P06756 891-1048 limits assumed): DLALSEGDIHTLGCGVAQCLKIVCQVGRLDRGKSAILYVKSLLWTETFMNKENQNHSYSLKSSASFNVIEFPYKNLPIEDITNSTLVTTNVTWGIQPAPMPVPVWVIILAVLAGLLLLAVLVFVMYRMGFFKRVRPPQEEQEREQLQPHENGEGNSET
T1 sequence (G3HZ55 21-798): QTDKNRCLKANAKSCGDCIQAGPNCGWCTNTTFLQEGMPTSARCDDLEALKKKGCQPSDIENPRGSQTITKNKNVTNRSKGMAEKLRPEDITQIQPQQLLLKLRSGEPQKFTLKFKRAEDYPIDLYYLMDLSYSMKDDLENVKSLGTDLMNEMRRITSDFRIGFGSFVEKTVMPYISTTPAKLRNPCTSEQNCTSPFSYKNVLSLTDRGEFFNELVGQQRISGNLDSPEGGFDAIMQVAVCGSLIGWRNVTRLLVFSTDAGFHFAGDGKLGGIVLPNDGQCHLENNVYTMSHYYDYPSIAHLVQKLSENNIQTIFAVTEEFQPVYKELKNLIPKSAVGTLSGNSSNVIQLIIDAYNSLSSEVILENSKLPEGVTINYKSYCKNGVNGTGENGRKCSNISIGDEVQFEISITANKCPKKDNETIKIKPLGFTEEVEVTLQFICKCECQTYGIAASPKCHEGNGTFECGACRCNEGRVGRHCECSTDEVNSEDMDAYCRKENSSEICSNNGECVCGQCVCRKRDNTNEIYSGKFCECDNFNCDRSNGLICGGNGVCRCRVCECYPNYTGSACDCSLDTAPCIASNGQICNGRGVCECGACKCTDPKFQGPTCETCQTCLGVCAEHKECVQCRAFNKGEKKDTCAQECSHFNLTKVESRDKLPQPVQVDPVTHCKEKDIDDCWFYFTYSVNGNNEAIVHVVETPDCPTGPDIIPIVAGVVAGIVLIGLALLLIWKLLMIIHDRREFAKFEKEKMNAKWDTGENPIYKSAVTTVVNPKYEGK
Procedure, shortened: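 α5-deficient CHO cells expressing αv, at 1×10^6 cells/mL in DMEM with 1 mM MnCl2 plus test compound, allowed to adhere 1 h at 37° C to human fibronectin (coated at 1.25 μg/mL). Adherent cells read by crystal violet absorbance, normalized to uncoated (100%) and DMSO (0%) wells. IC50 reported as banded classes.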

[1] = tested on: Human hepatic stellate cells; experiment: Active human hepatic stellate cell dedifferentiation test (decrease in ACTA2 mRNA expression); format: cell-based; settings: 3 days differentiation then 2 days with compound, read-out: IC50 (rate of decrease in ACTA2 mRNA expression)
Procedure, shortened: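 Human hepatic stellate cells differentiated 3 days in DMEM/10% FBS, then exposed to compound for 2 days (0.1% DMSO final) at 37° C. ACTA2 mRNA measured by RT-qPCR, normalized to GAPDH (comparative Ct). Decrease scaled between DMSO (100%) and start-of-differentiation cells (0%); IC50 derived from it.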

Structure (SMILES): O=C(O)C[C@H](NC(=O)CNC(=O)c1cc(NC2=NCC(F)CN2)c2cn[nH]c2c1)c1cccc(OC2CC2)c1 (stereo partly drawn) [Example 40-(b), (3S)-3-(3-cyclopropoxyphenyl)-3-(2-(4-((5-fluoro-1,4,5,6-tetrahydropyrimidin-2-yl)amino)-1H-indazole-6-carboxamido)acetamido)propanoic acid]
- IC50 (αvβ1): < 3 nM
- IC50 [1]: 10 to 50 nM

Structure (SMILES): O=C(O)C[C@H](NC(=O)CNC(=O)c1cc(NC2=NCC(F)CN2)c2cn[nH]c2c1)c1cccc(Cl)c1 (stereo partly drawn) [Example 41-(b), (3S)-3-(3-chlorophenyl)-3-(2-(4-((5-fluoro-1,4,5,6-tetrahydropyrimidin-2-yl)amino)-1H-indazole-6-carboxamido)acetamido)propanoic acid]
- IC50 (αvβ1): 3 to 10 nM
- IC50 [1]: 10 to 50 nM

Structure (SMILES): O=C(O)C[C@H](NC(=O)CNC(=O)c1cc(NC2=NCC(F)CN2)c2cn[nH]c2c1)c1cccc(Br)c1 (stereo partly drawn) [Example 42-(b), (3S)-3-(3-bromophenyl)-3-(2-(4-((5-fluoro-1,4,5,6-tetrahydropyrimidin-2-yl)amino)-1H-indazole-6-carboxamido)acetamido)propanoic acid]
- IC50 (αvβ1): 3 to 10 nM
- IC50 [1]: 10 to 50 nM

Structure (SMILES): O=C(O)C[C@H](NC(=O)CNC(=O)c1cc(NC2=NCC(F)CN2)c2cn[nH]c2c1)c1cccc(-n2cccn2)c1 (stereo partly drawn) [Example 43-(b), (3S)-3-(3-(1H-pyrazol-1-yl)phenyl)-3-(2-(4-((5-fluoro-1,4,5,6-tetrahydropyrimidin-2-yl)amino)-1H-indazole-6-carboxamido)acetamido)propanoic acid]
- IC50 (αvβ1): 3 to 10 nM
- IC50 [1]: 10 to 50 nM

Structure (SMILES): O=C(O)C[C@H](NC(=O)CNC(=O)c1cc(NC2=NCC(F)CN2)c2c(F)n[nH]c2c1)c1cc(Cl)cc(C(F)(F)F)c1 (stereo partly drawn) [Example 48-(b), (3S)-3-(3-chloro-5-(trifluoromethyl)phenyl)-3-(2-(3-fluoro-4-((5-fluoro-1,4,5,6-tetrahydropyrimidin-2-yl)amino)-1H-indazole-6-carboxamido)acetamido) propanoic acid]
- IC50 (αvβ1): 3 to 10 nM
- IC50 [1]: < 10 nM

Structure (SMILES): O=C(O)C[C@H](NC(=O)CNC(=O)c1cc(NC2=NCC(F)CN2)c2c(Cl)n[nH]c2c1)c1cc(Cl)cc(C(F)(F)F)c1 (stereo partly drawn) [Example 49-(b), (3S)-3-(2-(3-chloro-4-((5-fluoro-1,4,5,6-tetrahydropyrimidin-2-yl)amino)-1H-indazole-6-carboxamido)acetamido)-3-(3-chloro-5-(trifluoromethyl)phenyl)propanoic acid]
- IC50 (αvβ1): < 3 nM
- IC50 [1]: < 10 nM

Structure (SMILES): O=C(O)C[C@H](NC(=O)CNC(=O)c1cc(NC2=NCC(F)CN2)cc2[nH]ncc12)c1cc(Cl)cc(C(F)(F)F)c1 (stereo partly drawn) [Example 52-(b), (3S)-3-(3-chloro-5-(trifluoromethyl)phenyl)-3-(2-(6-((5-fluoro-1,4,5,6-tetrahydropyrimidin-2-yl)amino)-1H-indazole-4-carboxamido)acetamido)propanoic acid]
- IC50 (αvβ1): < 3 nM
- IC50 [1]: 10 to 50 nM

Structure (SMILES): O=C(O)C[C@H](NC(=O)CNC(=O)c1cc(NC2=NCC(F)CN2)cc2[nH]ncc12)c1cc(Br)cc(C(F)(F)F)c1 (stereo partly drawn) [Example 53-(b), (3S)-3-(3-bromo-5-(trifluoromethyl)phenyl)-3-(2-(6-((5-fluoro-1,4,5,6-tetrahydropyrimidin-2-yl)amino)-1H-indazole-4-carboxamido)acetamido)propanoic acid]
- IC50 (αvβ1): < 3 nM
- IC50 [1]: 10 to 50 nM

Structure (SMILES): O=C(O)C[C@H](NC(=O)CNC(=O)c1cc(NC2=NCC(F)CN2)cc2[nH]ncc12)c1cc(I)cc(C(F)(F)F)c1 (stereo partly drawn) [Example 54-(b), (3S)-3-(2-(6-((5-fluoro-1,4,5,6-tetrahydropyrimidin-2-yl)amino)-1H-indazole-4-carboxamido)acetamido)-3-(3-iodo-5-(trifluoromethyl)phenyl)propanoic acid]
- IC50 (αvβ1): < 3 nM
- IC50 [1]: 10 to 50 nM

Structure (SMILES): O=C(O)C[C@H](NC(=O)CNC(=O)c1cc(NC2=NCC(F)CN2)cc2[nH]ncc12)c1ccc(F)c(C(F)(F)F)c1 (stereo partly drawn) [Example 55-(b), (3S)-3-(2-(6-((5-fluoro-1,4,5,6-tetrahydropyrimidin-2-yl)amino)-1H-indazole-4-carboxamido)acetamido)-3-(4-fluoro-3-(trifluoromethyl)phenyl)propanoic acid]
- IC50 (αvβ1): < 3 nM
- IC50 [1]: < 10 nM

Structure (SMILES): O=C(O)C[C@H](NC(=O)CNC(=O)c1cc(NC2=NCC(F)CN2)cc2[nH]ncc12)c1cccc(C(F)(F)F)c1 (stereo partly drawn) [Example 56-(b), (3S)-3-(2-(6-((5-fluoro-1,4,5,6-tetrahydropyrimidin-2-yl)amino)-1H-indazole-4-carboxamido)acetamido)-3-(3-(trifluoromethyl)phenyl)propanoic acid]
- IC50 (αvβ1): 3 to 10 nM
- IC50 [1]: < 10 nM
